Experiment: Effect of phosphate and borate buffers on chemical stability (% remaining, impurity profile), osmolality, pH and appearance of 25HC3S 30 mg/mL in 250 mg/mL HPBCD at 80°C and 60°C
Format: physicochemical
Conditions: 80° C.
Experimental: A total of six 25HC3S formulations at 30 mg/mL in 250 mg/mL of 2-hydroxypropyl beta cyclodextrin (HPBCD) containing 10, 20, 50 and 100 mM phosphate buffers at pH 7.5 to 8.1 and 10 and 50 mM borate buffers at pH 9.4 were prepared for the stability study. The chemical stability (measured as % remaining of 25HC3S) and physical stability (osmolality, pH and appearance) of the formulations were monitored under accelerated conditions for up to 7 days at 80° C. and up to 29 days at 60° C.
Two stock solutions of phosphate buffer at 100 and 200 mM at pH 7.4 and 7.3, respectively and one borate buffer at 100 mM at pH 9.3 were prepared (Tables 22A and 22B) and used for 250 mg/mL HPBCD vehicles preparation (Table 23).
Approximately 1200 mg each of 25HC3S was weighed into 40 mL volumetric flasks and diluted to volume with the six HPBCD vehicles containing 10-100 mM phosphate buffers or 10 and 50 mM borate buffers, respectively (Table 24). The final concentration of 25HC3S was 30 mg/mL (wt/volume, without adjusting for API purity). Aliquots of 2 mL of each formulation were filled into 2 mL glass vials, stoppered and sealed for stability sample set-up at 60° C. and 80° C. to study the effect of phosphate buffer (pH 7.5-8.1) and borate buffer (pH 9.4) at various buffer concentrations on the stability of the HPBCD formulations (Table 26).
A 0.5 mL of sample solution was transferred to a 25 mL volumetric flask and QS'ed with methanol/water=95/5 for 25HC3S concentration determination by HPLC. The % remaining of 25HC3S was calculated as follows: […]

SMILES: C[C@H](CCCC(C)(C)O)[C@H]1CC[C@H]2[C@@H]3CC=C4C[C@@H](OS(=O)(=O)[O-])CC[C@]4(C)[C@H]3CC[C@]12C.[Na+] [25HC3S, 5-cholesten-3, 25-diol, 3-sulfate]
- % Peak Area Major Thermal Degradant at RRT = 2.64 (day 0, Phosphate 10 mM): 0.3 % Peak Area
- % Peak Area 25-Hydroxy Cholesterol at RRT = 3.67 (day 0, Phosphate 20 mM): 0.0 % Peak Area
- % Peak Area 25HC3S (day 0, Phosphate 20 mM): 99.7 % Peak Area
- % Peak Area Major Thermal Degradant at RRT = 2.64 (day 0, Phosphate 20 mM): 0.3 % Peak Area
- % Peak Area 25-Hydroxy Cholesterol at RRT = 3.67 (day 0, Phosphate 50 mM): 0.0 % Peak Area
- % Peak Area 25HC3S (day 0, Phosphate 50 mM): 99.7 % Peak Area
- % Peak Area Major Thermal Degradant at RRT = 2.64 (day 0, Phosphate 50 mM): 0.3 % Peak Area
- % Peak Area 25-Hydroxy Cholesterol at RRT = 3.67 (day 0, Phosphate 100 mM): 0.0 % Peak Area
- % Peak Area 25HC3S (day 0, Phosphate 100 mM): 99.8 % Peak Area
- % Peak Area Major Thermal Degradant at RRT = 2.64 (day 0, Phosphate 100 mM): 0.3 % Peak Area
- % Peak Area 25-Hydroxy Cholesterol at RRT = 3.67 (day 1, Borate 10 mM): 1.0 % Peak Area
- % Peak Area 25HC3S (day 1, Borate 10 mM): 98.8 % Peak Area
- % Peak Area Major Thermal Degradant at RRT = 2.64 (day 1, Borate 10 mM): 0.3 % Peak Area
- % Peak Area 25-Hydroxy Cholesterol at RRT = 3.67 (day 1, Borate 50 mM): 1.0 % Peak Area
- % Peak Area 25HC3S (day 1, Borate 50 mM): 98.7 % Peak Area
- % Peak Area Major Thermal Degradant at RRT = 2.64 (day 1, Borate 50 mM): 0.3 % Peak Area
- % Peak Area 25-Hydroxy Cholesterol at RRT = 3.67 (day 1, Phosphate 10 mM): 0.9 % Peak Area
- % Peak Area 25HC3S (day 1, Phosphate 10 mM): 98.9 % Peak Area
- % Peak Area Major Thermal Degradant at RRT = 2.64 (day 1, Phosphate 10 mM): 0.3 % Peak Area
- % Peak Area 25-Hydroxy Cholesterol at RRT = 3.67 (day 1, Phosphate 20 mM): 1.0 % Peak Area
- % Peak Area 25HC3S (day 1, Phosphate 20 mM): 98.8 % Peak Area
- % Peak Area Major Thermal Degradant at RRT = 2.64 (day 1, Phosphate 20 mM): 0.3 % Peak Area
- % Peak Area 25-Hydroxy Cholesterol at RRT = 3.67 (day 1, Phosphate 50 mM): 1.0 % Peak Area
- % Peak Area 25HC3S (day 1, Phosphate 50 mM): 98.9 % Peak Area
- % Peak Area Major Thermal Degradant at RRT = 2.64 (day 1, Phosphate 50 mM): 0.2 % Peak Area
- % Peak Area 25-Hydroxy Cholesterol at RRT = 3.67 (day 1, Phosphate 100 mM): 0.9 % Peak Area
- % Peak Area 25HC3S (day 1, Phosphate 100 mM): 98.8 % Peak Area
- % Peak Area Major Thermal Degradant at RRT = 2.64 (day 1, Phosphate 100 mM): 0.3 % Peak Area
- % Peak Area 25-Hydroxy Cholesterol at RRT = 3.67 (day 2, Borate 10 mM): 1.9 % Peak Area
- % Peak Area 25HC3S (day 2, Borate 10 mM): 97.9 % Peak Area
- % Peak Area Major Thermal Degradant at RRT = 2.64 (day 2, Borate 10 mM): 0.3 % Peak Area
- % Peak Area 25-Hydroxy Cholesterol at RRT = 3.67 (day 2, Borate 50 mM): 2.0 % Peak Area
- % Peak Area 25HC3S (day 2, Borate 50 mM): 97.8 % Peak Area
- % Peak Area Major Thermal Degradant at RRT = 2.64 (day 2, Borate 50 mM): 0.3 % Peak Area
- % Peak Area 25-Hydroxy Cholesterol at RRT = 3.67 (day 2, Phosphate 10 mM): 1.9 % Peak Area
- % Peak Area 25HC3S (day 2, Phosphate 10 mM): 97.9 % Peak Area
- % Peak Area Major Thermal Degradant at RRT = 2.64 (day 2, Phosphate 10 mM): 0.3 % Peak Area
- % Peak Area 25-Hydroxy Cholesterol at RRT = 3.67 (day 2, Phosphate 20 mM): 1.9 % Peak Area
- % Peak Area 25HC3S (day 2, Phosphate 20 mM): 98.0 % Peak Area
- % Peak Area Major Thermal Degradant at RRT = 2.64 (day 2, Phosphate 20 mM): 0.2 % Peak Area
- % Peak Area 25-Hydroxy Cholesterol at RRT = 3.67 (day 2, Phosphate 50 mM): 2.0 % Peak Area
- % Peak Area 25HC3S (day 2, Phosphate 50 mM): 97.8 % Peak Area
- % Peak Area Major Thermal Degradant at RRT = 2.64 (day 2, Phosphate 50 mM): 0.3 % Peak Area
- % Peak Area 25-Hydroxy Cholesterol at RRT = 3.67 (day 2, Phosphate 100 mM): 2.0 % Peak Area
- % Peak Area 25HC3S (day 2, Phosphate 100 mM): 97.8 % Peak Area
- % Peak Area Major Thermal Degradant at RRT = 2.64 (day 2, Phosphate 100 mM): 0.3 % Peak Area
- % Peak Area 25-Hydroxy Cholesterol at RRT = 3.67 (day 3, Borate 10 mM): 2.8 % Peak Area
- % Peak Area 25HC3S (day 3, Borate 10 mM): 97.0 % Peak Area
- % Peak Area Major Thermal Degradant at RRT = 2.64 (day 3, Borate 10 mM): 0.3 % Peak Area
- % Peak Area 25-Hydroxy Cholesterol at RRT = 3.67 (day 3, Borate 50 mM): 3.0 % Peak Area
- % Peak Area 25HC3S (day 3, Borate 50 mM): 96.9 % Peak Area
- % Peak Area Major Thermal Degradant at RRT = 2.64 (day 3, Borate 50 mM): 0.2 % Peak Area
- % Peak Area 25-Hydroxy Cholesterol at RRT = 3.67 (day 3, Phosphate 10 mM): 4.3 % Peak Area
- % Peak Area 25HC3S (day 3, Phosphate 10 mM): 95.6 % Peak Area
- % Peak Area Major Thermal Degradant at RRT = 2.64 (day 3, Phosphate 10 mM): 0.2 % Peak Area
- % Peak Area 25-Hydroxy Cholesterol at RRT = 3.67 (day 3, Phosphate 20 mM): 3.5 % Peak Area
- % Peak Area 25HC3S (day 3, Phosphate 20 mM): 96.4 % Peak Area
- % Peak Area Major Thermal Degradant at RRT = 2.64 (day 3, Phosphate 20 mM): 0.2 % Peak Area
- % Peak Area 25-Hydroxy Cholesterol at RRT = 3.67 (day 3, Phosphate 50 mM): 3.3 % Peak Area
- % Peak Area 25HC3S (day 3, Phosphate 50 mM): 96.5 % Peak Area
- % Peak Area Major Thermal Degradant at RRT = 2.64 (day 3, Phosphate 50 mM): 0.3 % Peak Area
- % Peak Area 25-Hydroxy Cholesterol at RRT = 3.67 (day 3, Phosphate 100 mM): 3.2 % Peak Area
- % Peak Area 25HC3S (day 3, Phosphate 100 mM): 96.6 % Peak Area
- % Peak Area Major Thermal Degradant at RRT = 2.64 (day 3, Phosphate 100 mM): 0.3 % Peak Area
- % Peak Area 25-Hydroxy Cholesterol at RRT = 3.67 (day 7, Borate 10 mM): 7.3 % Peak Area
- % Peak Area 25HC3S (day 7, Borate 10 mM): 92.5 % Peak Area
- % Peak Area Major Thermal Degradant at RRT = 2.64 (day 7, Borate 10 mM): 0.2 % Peak Area
- % Peak Area 25-Hydroxy Cholesterol at RRT = 3.67 (day 7, Borate 50 mM): 6.2 % Peak Area
- % Peak Area 25HC3S (day 7, Borate 50 mM): 93.6 % Peak Area
- % Peak Area Major Thermal Degradant at RRT = 2.64 (day 7, Borate 50 mM): 0.3 % Peak Area
- % Peak Area 25-Hydroxy Cholesterol at RRT = 3.67 (day 7, Phosphate 10 mM): 27.1 % Peak Area
- % Peak Area 25HC3S (day 7, Phosphate 10 mM): 72.3 % Peak Area
- % Peak Area Major Thermal Degradant at RRT = 2.64 (day 7, Phosphate 10 mM): 0.7 % Peak Area
- % Peak Area 25-Hydroxy Cholesterol at RRT = 3.67 (day 7, Phosphate 20 mM): 19.8 % Peak Area
- % Peak Area 25HC3S (day 7, Phosphate 20 mM): 79.9 % Peak Area
- % Peak Area Major Thermal Degradant at RRT = 2.64 (day 7, Phosphate 20 mM): 0.2 % Peak Area
- % Peak Area 25-Hydroxy Cholesterol at RRT = 3.67 (day 7, Phosphate 50 mM): 11.6 % Peak Area
- % Peak Area 25HC3S (day 7, Phosphate 50 mM): 88.2 % Peak Area
- % Peak Area Major Thermal Degradant at RRT = 2.64 (day 7, Phosphate 50 mM): 0.2 % Peak Area
- % Peak Area 25-Hydroxy Cholesterol at RRT = 3.67 (day 7, Phosphate 100 mM): 9.8 % Peak Area
- % Peak Area 25HC3S (day 7, Phosphate 100 mM): 90.0 % Peak Area
- % Peak Area Major Thermal Degradant at RRT = 2.64 (day 7, Phosphate 100 mM): 0.2 % Peak Area

From patent US20230047788A1, “COMPOSITIONS COMPRISING 5-CHOLESTEN-3, 25-DIOL, 3-SULFATE (25HC3S) OR PHARMACEUTICALLY ACCEPTABLE SALT THEREOF AND AT LEAST ONE CYCLIC OLIGOSACCHARIDE” (Virginia Commonwealth University, priority 2016, published 2023)
